Data as given in patent publication US20260256789A1, “METHODS FOR TREATMENT OF CANCER” (Frontier Medicines Corporation, priority 2022, published 2026).

Target: T1, KRAS G12C (GMPPNP-loaded) and cRAF Ras-binding domain (Homo sapiens, UniProt P01116, C118S/C51S/C80L/G12C)
T1 construct: truncated version comprising amino acids 1-169
Experiment: Inhibition of KRAS G12C and cRAF binding (AlphaScreen)
Settings: KRAS G12C preloaded with GTP analogue GMPPNP, 2 hours preincubation
How it was run: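 Compounds (10-point, 1:3 from 50 μM; 2% DMSO) were incubated 2 h at room temperature with 0.5 nM GMPPNP-preloaded truncated Cys-light KRAS G12C, then 60-90 min with 0.75 nM GST-RBD of cRAF and AlphaScreen beads. Signal at 570 nm gave IC50 by 4-parameter regression, and a biotin-AviTag-GST counter assay excluded interference with the AlphaScreen readout.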

T1 sequence (P01116 1-169 isoform P01116-2 G12C/C51S/C80L/C118S): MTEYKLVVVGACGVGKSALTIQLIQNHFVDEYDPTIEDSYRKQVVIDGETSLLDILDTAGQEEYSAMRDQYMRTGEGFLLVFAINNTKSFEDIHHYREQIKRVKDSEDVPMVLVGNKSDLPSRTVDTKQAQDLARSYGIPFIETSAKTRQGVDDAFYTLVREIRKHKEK

Compound | IC50 [nM]
CN(CC1CN(C(=O)/C=C/c2nc(C(C)(F)F)no2)C1)c1nc(OC[C@@]23CCCN2C[C@H](F)C3)nc2c(F)c(-c3nc(N)cc4cccc(Cl)c34)ncc12 [Example 169, (E)-1-(3-(((7-(3-amino-8-chloroisoquinolin-1-yl)-8-fluoro-2-(((2R,7aS)-2-fluorotetrahydro-1H-pyrrolizin-7a(5H)-yl)methoxy)pyrido[4,3-d]pyrimidin-4-yl)(methyl)amino)methyl)azetidin-1-yl)-3-(3-(1,1-difluoroethyl)-1,2,4-oxadiazol-5-yl)prop-2-en-1-one] | < 10
CN1CC[C@H]1/C=C/C(=O)N1CC[C@@H](N(C)c2nc(OC[C@@]34CCCN3C[C@H](F)C4)nc3c(F)c(-c4nc(N)cc5cccc(F)c45)ncc23)C1 (single isomer, unassigned) [Example 2] | 100 to 500
CN(C)CC#CC(=O)N1CC[C@@H](N(C)c2nc(OC[C@@]34CCCN3C[C@H](F)C4)nc3c(F)c(-c4nc(N)cc5cccc(Cl)c45)ncc23)C1 [Example 91] | 10 to 100
CN(c1nc(OC[C@@]23CCCN2C[C@H](F)C3)nc2c(F)c(-c3cccc(Cl)c3C3CC3)ncc12)[C@@H]1CCN(C(=O)C#CCN2CC3CCC(C2)O3)C1 [Example 257] | 10 to 100
CN(CC1CN(C(=O)/C=C/CN2CCOCC2)C1)c1nc(OC[C@@]23CCCN2C[C@H](F)C3)nc2c(F)c(-c3nc(N)cc4cccc(F)c34)ncc12 [Example 80, (E)-1-(3-(((7-(3-amino-8-fluoroisoquinolin-1-yl)-8-fluoro-2-(((2R,7aS)-2-fluorotetrahydro-1H-pyrrolizin-7a(5H)-yl)methoxy)pyrido[4,3-d]pyrimidin-4-yl)(methyl)amino)methyl)azetidin-1-yl)-4-morpholinobut-2-en-1-one] | ≥ 500
Cc1noc(/C=C/C(=O)N2CC[C@@H](N(C)c3nc(OCC45CCCN4CCC5)nc4c3CC(C)C(c3nc(N)cc(C)c3C(F)(F)F)C4)C2)n1 (stereo partly drawn) [Example 143] | < 10
CN1CC[C@@H]1/C=C/C(=O)N1CC[C@@H](N(C)c2nc(OC[C@@]34CCCN3C[C@H](F)C4)nc3c(F)c(-c4nc(N)cc5cccc(F)c45)ncc23)C1 (single isomer, unassigned) [Example 7] | < 10
Cc1cc(N)nc(-c2ncc3c(N4CCN(C#N)[C@@H](CC#N)C4)nc(OC[C@@]45CCCN4C[C@H](F)C5)nc3c2F)c1C(F)(F)F [Example 13, (S)-4-(7-(6-amino-4-methyl-3-(trifluoromethyl)pyridin-2-yl)-8-fluoro-2-(((2R,7aS)-2-fluorohexahydro-1H-pyrrolizin-7a-yl)methoxy)pyrido[4,3-d]pyrimidin-4-yl)-2-(cyanomethyl)piperazine-1-carbonitrile] | 10 to 100
CN1CC[C@@H]1/C=C/C(=O)N1CC[C@@H](N(C)c2nc(OC[C@@]34CCCN3C[C@H](F)C4)nc3c(F)c(-c4cc(O)cc(Cl)c4C4CC4)ncc23)C1 [Example 213] | < 10
Cc1cc(N)nc(-c2ncc3c(N(C)CC4CN(C(=O)/C=C/c5nc(C(C)C)no5)C4)nc(OC[C@@]45CCCN4C[C@H](F)C5)nc3c2F)c1C(F)(F)F [Example 154] | 10 to 100
Cc1noc(/C=C/C(=O)N2CC[C@@H](N(C)c3nc(OCC45CCCN4CCC5)nc4c3C[C@H](C)[C@@H](c3nc(N)cc(C)c3C(F)(F)F)C4)C2)n1 (single isomer, unassigned) [Example 17] | 10 to 100
CN(CC1CN(C(=O)/C=C/c2nc(C(C)(F)F)no2)C1)c1nc(OC[C@@]23CCCN2C[C@H](F)C3)nc2c(F)c(-c3nc(N)cc4cccc(F)c34)ncc12 [Example 113] | < 10
C=CC(=O)N1CC[C@@H](N(C)c2nc(OCC34CCCN3CCC4)nc3c2CC(C)C(c2nc(N)cc(C)c2C(F)(F)F)C3)C1 (stereo partly drawn) [Example 98] | 100 to 500
Cc1cc(N)nc(-c2ncc3c(N(C)[C@@H]4CCN(C(=O)/C=C/c5nc(C(C)C)no5)C4)nc(OC[C@@]45CCCN4C[C@H](F)C5)nc3c2F)c1C(F)(F)F [Example 71, (E)-1-((R)-3-((7-(6-amino-4-methyl-3-(trifluoromethyl)pyridin-2-yl)-8-fluoro-2-(((2R,7aS)-2-fluorotetrahydro-1H-pyrrolizin-7a(5H)-yl)methoxy)pyrido[4,3-d]pyrimidin-4-yl)(methyl)amino)pyrrolidin-1-yl)-3-(3-isopropyl-1,2,4-oxadiazol-5-yl)prop-2-en-1-one] | < 10

Other lines, results leading:

IC50 [nM] | Compound
≥ 500 | C=CC(=O)N1CC[C@@H](N(C)c2nc(OC[C@@]34CCCN3C[C@H](F)C4)nc3c(F)c(-c4cccc(F)c4C4CC4)ncc23)C1 [Example 220]
10 to 100 | C=CC(=O)N1CC[C@@H](N(C)c2nc(OCC34CCCN3CCC4)nc3c(F)c(-c4nc(N)cc(C)c4C(F)(F)F)ncc23)C1 [Example 79, (R)-1-(3-((7-(6-amino-4-methyl-3-(trifluoromethyl)pyridin-2-yl)-8-fluoro-2-((tetrahydro-1H-pyrrolizin-7a(5H)-yl)methoxy)pyrido[4,3-d]pyrimidin-4-yl)(methyl)amino)pyrrolidin-1-yl)prop-2-en-1-one]
≥ 500 | C=CC(=O)N1CC[C@H](O)[C@@H](N(C)c2nc(OC[C@@]34CCCN3C[C@H](F)C4)nc3c(F)c(-c4cccc(Cl)c4C(F)(F)F)ncc23)C1 [Example 205]
10 to 100 | Cc1noc(/C=C/C(=O)N2CC[C@@H](N(C)c3nc(OC[C@@]45CCCN4C[C@H](F)C5)nc4c(F)c(-c5nc(N)ccc5C(F)(F)F)ncc34)C2)n1 [Example 48, (E)-1-((R)-3-((7-(6-amino-3-(trifluoromethyl)pyridin-2-yl)-8-fluoro-2-(((2R,7aS)-2-fluorotetrahydro-1H-pyrrolizin-7a(5H)-yl)methoxy)pyrido[4,3-d]pyrimidin-4-yl)(methyl)amino)pyrrolidin-1-yl)-3-(3-methyl-1,2,4-oxadiazol-5-yl)prop-2-en-1-one]
< 10 | C=CC(=O)N1C[C@H](F)[C@@H](N(C)c2nc(OC[C@@]34CCCN3C[C@H](F)C4)nc3c(F)c(-c4cc(O)cc(Cl)c4C4CC4)ncc23)C1 [Example 243]
10 to 100 | CN(c1nc(OC[C@@]23CCCN2C[C@H](F)C3)nc2c(F)c(-c3cccc(Cl)c3C3CC3)ncc12)[C@@H]1CCN(C(=O)/C=C/CN2C3COCC2C3)C1 [Example 256]
≥ 500 | C=CC(=O)N1CC[C@@H](N(C)c2nc(OC[C@@]34CCCN3C[C@H](F)C4)nc3c(F)c(-c4cccn5cncc45)ncc23)C1 [Example 219]
< 10 | Cc1nccc(/C=C/C(=O)N2CC[C@@H](N(C)c3nc(OC[C@@]45CCCN4C[C@H](F)C5)nc4c(F)c(-c5cc(O)cc(Cl)c5C5CC5)ncc34)C2)n1 [Example 254]
10 to 100 | CN(C)C/C=C/C(=O)N1CC[C@@H](N(C)c2nc(OC[C@@]34CCCN3C[C@H](F)C4)nc3c(F)c(-c4nc(N)cc5cccc(Cl)c45)ncc23)C1 [Example 61, (E)-1-((R)-3-((7-(3-amino-8-chloroisoquinolin-1-yl)-8-fluoro-2-(((2R,7aS)-2-fluorohexahydro-1H-pyrrolizin-7a-yl)methoxy)pyrido[4,3-d]pyrimidin-4-yl)(methyl)amino)pyrrolidin-1-yl)-4-(dimethylamino)but-2-en-1-one]
10 to 100 | Cc1cc(N)nc(-c2ncc3c(N(C)[C@@H]4CCN(C(=O)/C=C/CN(C)C)C4)nc(OC[C@@]45CCCN4C[C@H](F)C5)nc3c2F)c1C(F)(F)F [Example 62, (E)-1-((R)-3-((7-(6-amino-4-methyl-3-(trifluoromethyl)pyridin-2-yl)-8-fluoro-2-(((2R,7aS)-2-fluorohexahydro-1H-pyrrolizin-7a-yl)methoxy)pyrido[4,3-d]pyrimidin-4-yl)(methyl)amino)pyrrolidin-1-yl)-4-(dimethylamino)but-2-en-1-one]
≥ 500 | C=CC(=O)N1CC[C@@H](N(C)c2nc(OC[C@@]34CCCN3C[C@H](F)C4)nc3c(F)c(-c4cncc(F)c4C4CC4)ncc23)C1 [Example 188]
10 to 100 | CN(c1nc(OC[C@@]23CCCN2C[C@H](F)C3)nc2c(F)c(-c3cccc(Cl)c3C3CC3)ncc12)[C@@H]1CCN(C(=O)C#C[C@@]2(C)CCCN2C)C1 [Example 235]
≥ 500 | C=CC(=O)N1CC[C@@H](N(C)c2nc(OC[C@@]34CCCN3C[C@H](F)C4)nc3c(F)c(-c4cc(O)cnc4C4CC4)ncc23)C1 [Example 253]
≥ 500 | C=CC(=O)N1CC[C@@H](N(C)c2nc(OC[C@@]34CCCN3C[C@H](F)C4)nc3c(F)c(-c4nc(N)ccc4C4CC4)ncc23)C1 [Example 166, 1-((R)-3-((7-(6-amino-3-cyclopropylpyridin-2-yl)-8-fluoro-2-(((2R,7aS)-2-fluorotetrahydro-1H-pyrrolizin-7a(5H)-yl)methoxy)pyrido[4,3-d]pyrimidin-4-yl)(methyl)amino)pyrrolidin-1-yl)prop-2-en-1-one]
≥ 500 | C=CC(=O)N1CC[C@@H](N(C)c2nc(OC[C@@]34CCCN3C[C@H](F)C4)nc3c(F)c(-c4cn[nH]c4C4CC4)ncc23)C1 [Example 179]
≥ 500 | C=CC(=O)N1CC[C@@H](N(C)c2nc(OC[C@@]34CCCN3C[C@H](F)C4)nc3c(F)c(-c4nccc5cccc(Cl)c45)ncc23)C1 [Example 209]
< 10 | Cc1cc(N)nc(-c2ncc3c(N(C)[C@@H]4CCN(C(=O)/C=C/[C@@H]5CCN5C)C4)nc(OC[C@@]45CCCN4C[C@H](F)C5)nc3c2F)c1C(F)(F)F [Example 83]
≥ 500 | C=CC(=O)N1CC[C@@H](N(C)c2nc(OC[C@@]34CCCN3C[C@H](F)C4)nc3c(F)c(-c4scnc4C)ncc23)C1 [Example 183]
10 to 100 | C=CC(=O)N1CC[C@@H](N(C)c2nc(OC[C@@]34CCCN3C[C@H](F)C4)nc3c(F)c(-c4nc(N)cc5cccc(F)c45)ncc23)C1 [Example 76, 1-((R)-3-((7-(3-amino-8-fluoroisoquinolin-1-yl)-8-fluoro-2-(((2R,7aS)-2-fluorohexahydro-1H-pyrrolizin-7a-yl)methoxy)pyrido[4,3-d]pyrimidin-4-yl)(methyl)amino)pyrrolidin-1-yl)prop-2-en-1-one]
